Activity calls are given as the source filed them. The rule behind the calls is not given here.
What was measured:
Rattus norvegicus [1] = experiment: Hypouricemic activity in Sprague-Dawley rat model of potassium oxonate-induced acute hyperuricemia assessed as decrease in serum uric acid level at 10 mg/kg, ig administered 1 hr before potassium oxonate challenge and measured after 3 hrs
Rattus norvegicus [2] = experiment: Hypouricemic activity in Sprague-Dawley rat model of potassium oxonate-induced acute hyperuricemia assessed as decrease in serum uric acid level at 5 mg/kg, ig administered 1 hr before potassium oxonate challenge and measured after 3 hrs

| Structure (SMILES) | Activity (Rattus norvegicus [1]) | Activity (Rattus norvegicus [2]) |
| --- | --- | --- |
| Oc1ncnc2[nH]ncc12 | Active | – |
| Cc1nc(-c2ccc(OCC(C)C)c(C#N)c2)sc1C(=O)O | – | Active |
